Where “and” joins values, the source holds several entries; their conditions need not be identical. Identical values can stand only once. Entries after “also recorded” stand apart in the source; their conditions may differ.
Assays:
[1] = Sweet taste / sweetness enhancing properties of 6″-O-acetylphloridzin; details: in vivo
Excerpt: It can therefore not be concluded that any dihydrochalcone glycoside carrying an acetyl substituent will taste sweet or be able to enhance or modulate sweetness.

[2] = Descriptor intensities (0-9) in orange softdrink base, panel of five flavorists; format: in vivo; details: for Lingering sweetness (0-9) B / Off note (0-9) B / Onset sweetness (0-9) B / Overall sweetness (0-9) B / acidity (0-9) B / fruity (0-9) B / juicy (0-9) B / mouthfeel (0-9) B / orange (0-9) B: B: + 20 mg/kg G92828 in orange softdrink base; for Lingering sweetness (0-9) B / Off note (0-9) B / Onset sweetness (0-9) B / Overall sweetness (0-9) B / acidity (0-9) B / fruity (0-9) B / juicy (0-9) B / mouthfeel (0-9) B / orange (0-9) B / Lingering sweetness (0-9) A / Off note (0-9) A / Onset sweetness (0-9) A / Overall sweetness (0-9) A / acidity (0-9) A / fruity (0-9) A / juicy (0-9) A / mouthfeel (0-9) A / orange (0-9) A: RS 200, PD 120, HT 10, PH 30 mg/kg, n=5; for Lingering sweetness (0-9) Δ / Off note (0-9) Δ / Onset sweetness (0-9) Δ / Overall sweetness (0-9) Δ / acidity (0-9) Δ / fruity (0-9) Δ / juicy (0-9) Δ / mouthfeel (0-9) Δ / orange (0-9) Δ: difference B vs A (effect of 20 mg/kg G92828); for Lingering sweetness (0-9) A / Off note (0-9) A / Onset sweetness (0-9) A / Overall sweetness (0-9) A / acidity (0-9) A / fruity (0-9) A / juicy (0-9) A / mouthfeel (0-9) A / orange (0-9) A: A: substance alone in orange softdrink base
Procedure: Different descriptors relevant for the overall liking of an orange softdrink were applied and the differences in intensities of each descriptor (Δ) of FMP (A) to FMP+ compound (1) (B) were determined by a panel of five flavorists (n=5) and given as intensities from 0-9 as shown in Tables 4-12. The panelists were asked to neutralise with tap water between each sample and the intensity of the descriptors of each sample were defined before tasting the next sample. The tasting of each RS, PD, HT or PH (A) were followed by the samples with added RS, PD, HT or PH+compound (1) (B) with each being compared to the intensities of the base.

[3] = Duo test (paired comparison, trained sensory panel) of compounds against 5% sucrose solution; format: in vivo; details: 50 mg/kg in 5% sucrose solution; for sweet modul. activity (%): 20 panelists, perceived sweeter than without addition
Excerpt: The sensory impact of trilobatin and compound (1) have been compared by a trained sensory panel (Table 1) using a series of paired comparison tests. The samples were coded and randomized (referred to as Duo test):
Each of compound (1) and trilobatin has been compared with a 5% sucrose solution in water.

[4] = Sensory profile of sugar solution with added compounds; format: in vivo; details: 80 mg/kg in 5% sucrose solution
[5] = Intrinsic sweetness by Duo test against 1.5% sucrose; format: in vivo
Procedure: 200 g/l L. litseifolius leaf extract (47% trilobatin, 7% phloridizin) was dissolved in triacetin and reacted with lipase Novozyme 435 for 6 h at 80° C. After cooling the mixture, the solution was filtrated. The solution contained 4.2% compound 1. The intrinsic sweetness of the solution was determined by a Duo test comparing different concentrations of this solution with a 1.5% sucrose sample. It turned out that 0.15% of the solution (containing 63 mg/kg compound 1) was as sweet as 1.5% sucrose.
The intrinsic sweetness of pure compound (1) (>95%) was determined by a panel of 20 trained panellists. Thereby, a 1.5% sucrose solution was compared by a Duo test with 65 mg/kg of compound (1) in water. […] The intrinsic sweetness of compound (1) in a mixture of trilobatin and diacetyl trilobatins was similar than of pure compound (1).

[6] = cited from earlier work
[7] = soft drink base and in combination with RS, PD, HT and PH

Compound | Lingering sweetness (0-9) B [2] | Off note (0-9) B [2] | Onset sweetness (0-9) B [2] | Overall sweetness (0-9) B [2] | acidity (0-9) B [2] | fruity (0-9) B [2] | juicy (0-9) B [2] | mouthfeel (0-9) B [2] | orange (0-9) B [2] | Lingering sweetness (0-9) Δ [2] | Off note (0-9) Δ [2] | Onset sweetness (0-9) Δ [2] | Overall sweetness (0-9) Δ [2] | acidity (0-9) Δ [2] | fruity (0-9) Δ [2] | juicy (0-9) Δ [2] | mouthfeel (0-9) Δ [2] | significance of sweet modulating activity / sensory effect [3] | sweet modul. activity (%) [3] | Aftertaste [4] | further results
CC(=O)OC[C@H]1O[C@@H](Oc2cc(O)cc(O)c2C(=O)CCc2ccc(O)cc2)[C@H](O)[C@@H](O)[C@@H]1O [6″-O-Acetylphloridzin] |  |  |  |  |  |  |  |  |  |  |  |  |  |  |  |  |  |  |  |  | sweet taste or sweetness enhancing properties [1]: did not show any sweet taste or sweetness enhancing properties
CC(=O)OC[C@H]1O[C@@H](Oc2cc(O)c(C(=O)CCc3ccc(O)cc3)c(O)c2)[C@H](O)[C@@H](O)[C@@H]1O [compound (1), 6″-O-acetyltrilobatin] | 0.0 | 0.0 | 4.5 | 6.0 | 3.5 | 5.0 | 4.0 | 4.0 | 5.0 | 0.0 | 0.0 | 0.5 | 1.0 | −0.5 | 0.0 | 0.0 | 0.5 | significant | 27.5% and 27.54% | 1 | effect on perceived acidity ([2]; base, RS, HT and PH): reducing perceived acidity; effect on acidity ([2]; in combination with PD): no reduction in acidity; effect on lingering aftertaste ([2]; in combination with PD): slightly reduced; effect on overall sweetness ([2]; in combination with PH, compared to PH): no increase in overall sweetness; effect on lingering aftertaste ([2]; in combination with RS): slight increase in lingering aftertaste; effect on fruity notes ([2]; in combination with RS and PD): increasing fruity notes; effect on overall sweetness ([2]; in combination with RS, PD and HT): increased; effect on onset sweetness ([2]; in combination with RS, PD, HT and PH): increases the onset sweetness; effect on juicy character ([2]; in combination with each tested FMP): increasing the juicy character; effect on intensity of orange flavor [2, 7]: no impact; effect on off notes [2, 7]: no impact; effect on juicy notes ([2]; test base alone): no effect; effect on mouthfeel ([2]; test base and every tested FMP): improves the mouthfeel; Impact [4]: 4; Intensity [4]: 6; Mouthfeel [4]: 5; concentration of compound 1 contained in solution as sweet as 1.5% sucrose ([5]; in enzymatically acetylated L. litseifolius leaf extract solution (4.2% compound 1) dosed at 0.15%): 63 mg/kg; intrinsic sweetness in a mixture of trilobatin and diacetyl trilobatins compared with pure compound ([5]; in vivo): similar
COc1ccc([C@@H]2CC(=O)c3c(O)cc(O)cc3O2)cc1O [HT, Hesperetin] | 0.0 | 0.0 | 6.0 | 7.5 | 3.5 | 5.0 | 5.0 | 4.5 | 5.0 | 0.0 | 0.0 | 1.0 | 1.5 | −0.5 | 0.0 | 1.0 | 0.5 |  |  |  | Lingering sweetness (0-9) A [2]: 0.0; Off note (0-9) A [2]: 0.0; Onset sweetness (0-9) A [2]: 5.0; Overall sweetness (0-9) A [2]: 6.0; acidity (0-9) A [2]: 4.0; fruity (0-9) A [2]: 5.0; juicy (0-9) A [2]: 4.0; mouthfeel (0-9) A [2]: 4.0; orange (0-9) A [2]: 5.0; orange (0-9) Δ [2]: 0.0
O=C(CCc1ccc(O)cc1)c1c(O)cc(O)cc1O [PH, Phloretin] | 0.0 | 0.0 | 6.0 | 6.5 | 3.0 | 5.5 | 5.5 | 5.0 | 5.0 | 0.0 | 0.0 | 1.0 | 0.0 | −0.5 | 0.0 | 0.5 | 1.0 |  |  |  | Lingering sweetness (0-9) A [2]: 0.0; Off note (0-9) A [2]: 0.0; Onset sweetness (0-9) A [2]: 5.0; Overall sweetness (0-9) A [2]: 6.5; acidity (0-9) A [2]: 3.5; fruity (0-9) A [2]: 5.5; juicy (0-9) A [2]: 5.0; mouthfeel (0-9) A [2]: 4.0; orange (0-9) A [2]: 5.0; orange (0-9) Δ [2]: 0.0
O=C(CCc1ccc(O)cc1)c1c(O)cc(O[C@@H]2O[C@H](CO)[C@@H](O)[C@H](O)[C@H]2O)cc1O [trilobatin, phloretin-4′-β-D-glucopyranoside] |  |  |  |  |  |  |  |  |  |  |  |  |  |  |  |  |  | did not have a significant sensory effect; also recorded: did not show a significant sensory effect | 1.66% | 1 | taste at 20 mg/kg ([6]; 20 mg/kg): does not taste sweet; taste at 100 mg/kg ([6]; 100 mg/kg, compared to 0.5% sucrose solution): weakly sweet; concentration above which sweetness can be detected ([6]; in vivo): above 60 mg/kg; Impact [4]: 3; Intensity [4]: 4; Mouthfeel [4]: 5

Source: US20240407414A1, “DIHYDROCHALCONE DERIVATIVES” (SYMRISE AG, priority 2021, published 2024)
